Laboratory results as given in patent US6537567B1, “Tissue-engineered tubular construct having circumferentially oriented smooth muscle cells” (Massachusetts Institute of Technology, priority 1997, dated 2003).

Columns and labels:
[1] = tested on: Segments of neo-artery; test: Pharmacologic reactivity of vessel segments in myographs; type: cell-based; conditions: for constriction response of vessel segment: prostaglandin F2α 10^−5 to 10^−4 M, serotonin 10^−6 to 10^−5 M, endothelin-1 10^−7, resting tension four grams
Experimental: Segments of neo-artery three mm in length were assessed for reactivity to pharmacologic agents using techniques previously reported. Briefly, segments were placed in physiological saline bubbled with 95% O2 and 5% CO2, and mounted on tungsten wires in conventional myographs connected to a pen recorder. Freshly excised segments of rabbit abdominal aorta were used as controls. Vessels were maintained at a resting tension of four grams for 30 minutes prior to testing. Vessels were exposed to indomethacin 10^−5 M, LNNA 10^−4 M, norepinephrine 10^−6 M, prostaglandin F2α10^−5 to 10^−4 M, papavarine 10^−6 to 10^−5 M, serotonin 10^−6 to 10^−5 M, endothelin-1 10^−7 and potassium 30-60 mM. […] In some experiments, the magnitude of the constriction response was augmented by prior exposure to indomethacin.

[2] = tested on: smooth muscle cells; test: Growth of smooth muscle cells under externally applied physical forces; type: cell-based; conditions: response to externally applied physical forces such as pulsatile force
Experimental: For use in the methods of the present invention, several variations on standard cell growth media have been developed. […] In addition, for growing any cells which normally produce a substantial collagenous extracellular matrix, an “enhanced cell growth medium” has been developed which comprises standard cell growth medium, as described above, supplemented with 1-10 mM, preferably 5 mM, HEPES buffer; 0.01-0.1 g/L, preferably 0.02-0.06 g/L, Vitamin C; 0.01-0.1 g/L, preferably 0.02-0.06 g/L, proline; 0.01-0.1 g/L, preferably 0.02-0.06 g/L, glycine; 0.01-0.1 g/L, preferably 0.02-0.06 g/L, alanine; and 0.5-5.0 μg/L, preferably 1.0-3.0 μg/L, of a copper salt (e.g., CuSO4). Because Vitamin C has a half-life of only 6-8 hours at 37° C. in culture medium, Vitamin C is preferably replenished daily to enhance collagen synthesis by the cells. In addition, proline, glycine, and alanine are provided in excess to provide adequate amounts of these amino acids for the synthesis of collagen and other extracellular matrix proteins such as elastin. Copper ions are a necessary co-factor for elastin synthesis and, therefore, a source of copper ions (e.g., CuSO4) is preferably included in media used to grow elastin-rich tissues. For the growth of endothelial cells, it is preferred that CS be used rather than FBS. […]

[3] = tested on: smooth muscle cell; conditions: cited from earlier work
[4] = tested on: aortic endothelial cell; conditions: cited from earlier work

Compound | constriction response of vessel segment [1] | effect on smooth muscle cell proliferation [3] | other results
COc1ccc2c(c1)c(CC(=O)O)c(C)n2C(=O)c1ccc(Cl)cc1 [indomethacin] |  |  | effect of prior exposure on magnitude of the constriction response ([1]; indomethacin 10^−5 M, in some experiments): augmented
COc1ccc(Cc2nccc3cc(OC)c(OC)cc23)cc1OC [papavarine] |  |  | relaxation response of vessel segment ([1]; papavarine 10^−6 to 10^−5 M): relaxation
NCCc1c[nH]c2ccc(O)cc12 [serotonin] | reproducible constriction |  | 
[H]/N=C(/N)N[C@H]1[C@H](O)[C@@H](O)[C@H](O[C@@H]2O[C@@H](C)[C@](O)(C=O)[C@H]2O[C@@H]2O[C@@H](CO)[C@H](O)[C@@H](O)[C@@H]2NC)[C@@H](N/C(N)=N\[H])[C@@H]1O [streptomycin] |  |  | effect on development of the desired smooth muscle phenotype [2]: tends to inhibit the development of the desired phenotype
PDGF |  | stimulate smooth muscle cell proliferation | 
VEGF |  |  | effect on aortic endothelial cell growth [4]: stimulate aortic endothelial cell growth
aFGF: acidic fibroblast growth factor |  | stimulate smooth muscle cell proliferation | 
bFGF: basic fibroblast growth factor |  | stimulate smooth muscle cell proliferation | effect on aortic endothelial cell growth [4]: stimulate aortic endothelial cell growth
endothelin-1 (CSCSSLMDKECVYFCHLDIIW; Endothelin-1; UniProt P05305 53-73, looked up) | reproducible constriction |  | 
prostaglandin F2α | reproducible constriction |  | 
